Data published in patent US7951408B2, “Methods of feeding animals” (ADM Alliance Nutrition Inc., priority 2001, dated 2011).
“And” between values parts separate entries of the source, which are not always exact repeats. Equal entries are not always repeated. Where two headings read alike, the source gives them in different places. Marks after values point to notes of the source that are not given here.

Tests used:
rumen protein digestion [1] = assay: In vitro fermentation of protein meals with metal ions: RUP after 16 h; settings: for Mean RUP: 150 mg/L metal ions, 16 h of fermentation
rumen protein digestion [2] = assay: In vitro digestion in artificial rumen system (Ankom Daisy): rumen protein digestion
Procedure: Metals were incorporated at 150 or 300 mg/L. […] Previous efforts focused on the digestion of high protein feeds such as oilseed meals.

rumen starch digestion = assay: In vitro starch digestion and pH in artificial rumen system (Ankom Daisy)
Procedure: In vitro digestions of a complete dairy pellet, and a dairy total mixed ration TMR) were performed using an artificial rumen system (Ankom Daisy system) to evaluate the effects of metal ions on rumen starch digestion.

lactating dairy cows = settings: for Dry matter intake / Intestinal Amino Acid flows, Lysine / Intestinal Amino Acid flows, Methionine / Intestinal Amino Acid flows, Total Essential Amino Acids / Ruminal digestion, Neutral Detergent Fiber / Ruminal digestion, Organic Matter / Ruminal digestion, Starch: additional 250 ppm zinc
Procedure: The concentration of RUP in high and low RUP diets were manipulated by changing the proportions of low RUP feeds (soybean meal, canola) and high RUP feeds (heated soybean meal, corn gluten meal).
Using the data presented in Table 8, the amount of metal ions fed to the cows can also be expressed in grams of metal ions per kilogram of the cow's body weight per day. For instance, Table 8A presents the data of Table 8 in a different format. The average body weight is determined by the fact that an average mature dairy cow weighs about 640 kg. The grams of metal ions fed to the cow per kg of the cow's body weight per day is determined by: multiplying the DMI (kg/day) times the metal ion concentration (grams of metal ions per kg of dry feed), resulting in the amount of metal ions in grams fed to the cow per day; the amount of metal ions in grams fed to the cow per day is divided by the average body weight of the cow, thus resulting in the grams of metal ions fed to the cow per kg of the cow's body weight per day.

crossbred wether lambs = assay: Performance of lambs receiving zinc or zinc, manganese, iron combinations; format: in vivo; settings: 16% CP, Low RUP diet plus metal sulfates (about 500 ppm total metal)
Procedure: Individually fed crossbred wether lambs were fed diets containing 14% CP (as a negative control) or 16% CP with low or high RUP content to examine the feeding of divalent metals singly or in combination. Bypass protein content was increased by feeding higher amounts of heat-treated soybean meal. In the 16%, Low RUP diet, the following metal additions were tested: 500 ppm Zn; 250 ppm Zn:250 ppm Mn; and 170 ppm Zn: 170 ppm Mn: 170 ppm Fe. All metals were added in the sulfate form, and iron was in the form of ferrous sulfate. Feeding the 16% CP: High RUP diet or adding metals to the 16% CP: Low RUP tended to decrease gain and feed efficiency with only small effects on feed intake relative to that obtained with the 16%, low RUP diet (Table 6).
For instance, Table 6A presents the data of Table 6 in a different format. The average body weight is determined by dividing the sum of the initial weight and the 42 day weight of the lamb by 2.

Holstein cows = settings: complete feed 1020 ppm of zinc, six weeks
Description: The source of RUP was a combination of heated soybean meal, corn gluten meal, and distiller dried grains.

Compound: [Cl][Fe]([Cl])[Cl] [Ferric Iron]
- Mean RUP (rumen protein digestion [1]; Canola): 51.6^ab
- Mean RUP (rumen protein digestion [1]; Cottonseed): 58.4^b
- Mean RUP (rumen protein digestion [1]; Heated Canola): 81.1^a
- Mean RUP (rumen protein digestion [1]; Heated SBM): 81.7^ab
- Mean RUP (rumen protein digestion [1]; SBM): 29.1^a

Compound: O=S(=O)([O-])[O-].[Zn+2] [Zinc, zinc sulfate]
- Average rumen undegraded protein for all samples (rumen protein digestion [2]): 45 % of protein and 48 % of protein
- Ammonia (rumen starch digestion): 30.8 mg/dL and 29.7 mg/dL
- Ammonia, Main Effects (rumen starch digestion): -1.1 mg/dL
- Digestion Rates, Rumen Undegraded Starch (16 hours), Main Effects (rumen starch digestion): .038** % per hour
- Digestion Rates, pH Decline, Main Effects (rumen starch digestion): −.027 % per hour
- Rumen Undegraded Starch (16 hours) (rumen starch digestion): 13.2% and 12.0%
- Rumen Undegraded Starch (16 hours), Main Effects (rumen starch digestion): 4.0%
- calculated kinetic rate for starch digestion (rumen starch digestion): decreased
- pH at 16 hours, Main Effects (rumen starch digestion): .05*
- pH at 48 hours, Main Effects (rumen starch digestion): .05
- rumen undegraded starch measured at 16 h (rumen starch digestion): increased
- Dry matter intake (lactating dairy cows; High RUP diet): 22.2 kg/day
- Intestinal Amino Acid flows, Lysine (lactating dairy cows; High RUP diet): 200.0 g/day
- Intestinal Amino Acid flows, Methionine (lactating dairy cows; High RUP diet): 58.2 g/day
- Intestinal Amino Acid flows, Total Essential Amino Acids (lactating dairy cows; High RUP diet): 1601 g/day
- Ruminal digestion, Neutral Detergent Fiber (lactating dairy cows; High RUP diet): 24.8 % of intake
- Ruminal digestion, Organic Matter (lactating dairy cows; High RUP diet): 45.5 % of intake
- Ruminal digestion, Starch (lactating dairy cows; High RUP diet): 52.8 % of intake
- Dry matter intake (lactating dairy cows; Low RUP diet): 21.8 kg/day
- Intestinal Amino Acid flows, Lysine (lactating dairy cows; Low RUP diet): 183.3 g/day
- Intestinal Amino Acid flows, Methionine (lactating dairy cows; Low RUP diet): 49.0 g/day
- Intestinal Amino Acid flows, Total Essential Amino Acids (lactating dairy cows; Low RUP diet): 1331 g/day
- Ruminal digestion, Neutral Detergent Fiber (lactating dairy cows; Low RUP diet): 22.0 % of intake
- Ruminal digestion, Organic Matter (lactating dairy cows; Low RUP diet): 47.3 % of intake
- Ruminal digestion, Starch (lactating dairy cows; Low RUP diet): 53.6 % of intake
- digestion of starch in the rumen (lactating dairy cows; both the low and high RUP diets, in words): reduced
- Mean RUP (rumen protein digestion [1]; Canola): 57.3^b
- Mean RUP (rumen protein digestion [1]; Cottonseed): 64.4^c
- Mean RUP (rumen protein digestion [1]; Heated Canola): 85.2^b
- Mean RUP (rumen protein digestion [1]; Heated SBM): 85.2^b
- Mean RUP (rumen protein digestion [1]; SBM): 56.4^c
- ADG (average daily gain) (crossbred wether lambs): 451^a,b g/day
- G/F × 100 (ratio of weight gain to feed intake) (crossbred wether lambs): 27.3^b
- Total Gain (crossbred wether lambs): 18.81^a kg
- 42 day weight (crossbred wether lambs; listed as Zn): 43.8^a kg and 43.8 kg
- DMI (dry matter intake) (crossbred wether lambs; listed as Zn): 1.66^a kg/day and 1.66 kg/day
- Milk (Holstein cows): 33.2 kg/day
- Milk Fat (Holstein cows): 3.25%
- Milk Protein (Holstein cows): 3.20%

Compound: ferrous sulfate [Ferrous Iron]
- decreasing rumen protein digestion, effectiveness (rumen protein digestion [1]; 150 mg/L, in words): substantially more effective than the ferric ion
- Mean RUP (rumen protein digestion [1]; Canola): 57.7^b
- Mean RUP (rumen protein digestion [1]; Cottonseed): 62.1^bc
- Mean RUP (rumen protein digestion [1]; Heated Canola): 83.5^b
- Mean RUP (rumen protein digestion [1]; Heated SBM): 83.9^b
- Mean RUP (rumen protein digestion [1]; SBM): 42.9^b

Compound: manganous sulfate [Manganese]
- rumen undegraded protein (rumen protein digestion [2]; Alfalfa Haylage, 150 mg/L): 26.1
- rumen undegraded protein (rumen protein digestion [2]; Alfalfa Haylage, 300 mg/L): 24.8
- rumen undegraded protein (rumen protein digestion [2]; Dairy Concentrate Feeds, 150 mg/L): 50.9
- rumen undegraded protein (rumen protein digestion [2]; Dairy Concentrate Feeds, 300 mg/L): 52.3
- Average rumen undegraded protein for all samples (rumen protein digestion [2]; metal inclusion 150 mg/L): 43.2 % of protein
- Average rumen undegraded protein for all samples (rumen protein digestion [2]; metal inclusion 300 mg/L): 42.5 % of protein
- Ammonia (rumen starch digestion; 150 mg/L metal): 32.1 mg/dL
- Digestion Rates, Rumen Undegraded Starch (16 hours) (rumen starch digestion; 150 mg/L metal): −.137 % per hour
- Digestion Rates, pH Decline (rumen starch digestion; 150 mg/L metal): .135 % per hour
- Rumen Undegraded Starch (16 hours) (rumen starch digestion; 150 mg/L metal): 5.1%
- pH at 16 hours (rumen starch digestion; 150 mg/L metal): −.28
- pH at 48 hours (rumen starch digestion; 150 mg/L metal): −.30
- Ammonia (rumen starch digestion; 300 mg/L metal): 34.2 mg/dL
- Digestion Rates, Rumen Undegraded Starch (16 hours) (rumen starch digestion; 300 mg/L metal): −.132 % per hour
- Digestion Rates, pH Decline (rumen starch digestion; 300 mg/L metal): .247 % per hour
- Rumen Undegraded Starch (16 hours) (rumen starch digestion; 300 mg/L metal): 8.0%
- pH at 16 hours (rumen starch digestion; 300 mg/L metal): −.34
- pH at 48 hours (rumen starch digestion; 300 mg/L metal): −.27
- Ammonia, Main Effects (rumen starch digestion; main effect of metal): 1.8 mg/dL
- Digestion Rates, Rumen Undegraded Starch (16 hours), Main Effects (rumen starch digestion; main effect of metal): 0.0 % per hour
- Digestion Rates, pH Decline, Main Effects (rumen starch digestion; main effect of metal): −.043 % per hour
- Rumen Undegraded Starch (16 hours), Main Effects (rumen starch digestion; main effect of metal): −2.0%
- pH at 16 hours, Main Effects (rumen starch digestion; main effect of metal): .05*
- pH at 48 hours, Main Effects (rumen starch digestion; main effect of metal): .03
